Results: patent publication US5294724A, “4-hydroxytetrahydropyran-2-ones and the corresponding dihydroxycarboxylic acid derivatives, salts and esters and a process for their preparation” (priority 1989, dated 1994)
Where a name gives a salt, the structure may show the parent alone. Read-outs that look alike come from different tables or passages of the source. One block for each molecule: values may come before it.

What was measured:
HEP G2 cells = experiment: Inhibition of cholesterol biosynthesis in cell cultures (HEP G2 cells), incorporation of 14C-sodium acetate in cholesterol; format: cell-based; conditions: for IC50 / IC70: Homo sapiens; for Relative potency in %: from IC50
Description: 2) Inhibition of cholesterol biosynthesis in cell cultures (EEP G2 cells)
Determination of the inhibition of the incorporation of ^14 C-sodium acetate in cholesterol
Monolayers of HEP G2 cells in lipoprotein-free medium were preincubated with various concentrations of the sodium salts of the dihydroxycarboxylic acids of the formula II for 1 hour. After adding ^14 C-labeled sodium acetate, the incubation was continued for 3 hours. Tritium-labeled cholesterol was added as an internal standard and an aliquot of the cells was subjected to alkaline hydrolysis. The lipids were extracted using chloroform/methanol 2: 1. After adding carrier cholesterol, the lipid mixture was preparatively separated on TLC plates using chloroform/acetone 9: 1. The cholesterol zone was made visible by staining with iodine vapor, additionally detected using a TLC radio scanner and then scraped off. The amount of ^14 C-cholesterol formed was determined scintigraphically and related to mg of cell protein. The same procedure was carried out with cells from the Bame culture without preincubation with a test compound (so-called "solvent control"). The potency of the test compounds was determined by comparison of the biosynthesized ^14 C-cholesterol in test runs and in "solvent control".

serum total cholesterol = experiment: Hypocholesterolemic activity in rabbits after p.o. administration; format: in vivo, male white New Zealand rabbits; conditions: rabbit p.o.
Description: 4) Hypocholesterolemic activity in rabbits after p.o. administration
Normolipemic male white New Zealand rabbits, body weight 3-3.5 kg, were divided into groups of 5 animals. The groups in each case received one of the test compounds (sodium salts of the compounds of the formula II), suspended in 1% aqueous methylcellulose (®Tylose MH 300), 5.10 or 20 mg/kg/day daily in the morning by stomach tube. The animals of the control groups received only Tylose MH 300. Every 3-4 days samples of venous blood were taken from all animals 20 hours after the oral administration. The serum total cholesterol was determined enzymatically in these samples using the test combination of Boehringer Mannheim (CHOD-PAP high performance method). The serum cholesterol level of the treated animals was compared with that of the control groups. A "discharge phase" followed the 20-day "treatment phase", in which the change in the serum cholesterol level was further monitored.

HMG-CoA reductase = target: T1, HMG-CoA reductase (Rattus norvegicus, UniProt P51639); experiment: Inhibition of HMG-CoA reductase activity in solubilized enzyme preparations from rat liver microsomes; format: biochemical; conditions: sodium salts of the dihydroxycarboxylic acids; mean of 3 parallel samples; read-out: IC50 (molar concentration necessary for a 50% inhibition)
T1 construct: solubilized enzyme preparations from liver microsomes of rats; from tissue; host or cells: rat liver microsomes (cholestyramine-induced rats), solubilized
T1 sequence (P51639 1-887): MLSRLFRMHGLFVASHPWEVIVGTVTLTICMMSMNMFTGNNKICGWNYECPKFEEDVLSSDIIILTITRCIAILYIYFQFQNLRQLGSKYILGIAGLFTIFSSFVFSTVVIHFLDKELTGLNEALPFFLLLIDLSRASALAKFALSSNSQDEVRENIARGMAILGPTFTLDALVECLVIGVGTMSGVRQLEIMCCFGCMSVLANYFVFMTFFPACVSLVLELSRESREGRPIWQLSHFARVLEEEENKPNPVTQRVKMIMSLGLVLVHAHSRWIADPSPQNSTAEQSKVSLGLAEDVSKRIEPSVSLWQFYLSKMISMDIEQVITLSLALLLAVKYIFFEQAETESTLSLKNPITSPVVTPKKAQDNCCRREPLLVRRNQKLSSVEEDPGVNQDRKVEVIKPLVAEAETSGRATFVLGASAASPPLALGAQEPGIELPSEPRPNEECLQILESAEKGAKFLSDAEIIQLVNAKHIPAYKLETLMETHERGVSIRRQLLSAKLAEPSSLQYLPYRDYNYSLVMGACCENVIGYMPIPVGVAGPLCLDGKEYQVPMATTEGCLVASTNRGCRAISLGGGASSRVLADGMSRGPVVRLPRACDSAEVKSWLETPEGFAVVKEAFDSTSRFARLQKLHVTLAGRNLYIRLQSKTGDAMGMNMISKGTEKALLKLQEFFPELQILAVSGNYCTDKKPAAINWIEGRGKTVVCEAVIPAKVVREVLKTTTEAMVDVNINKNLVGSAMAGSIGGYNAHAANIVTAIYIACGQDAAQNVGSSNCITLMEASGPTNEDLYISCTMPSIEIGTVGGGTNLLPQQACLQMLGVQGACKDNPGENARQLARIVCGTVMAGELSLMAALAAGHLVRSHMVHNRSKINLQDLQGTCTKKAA
Description: 1) Inhibition of HKG-CoA reductase activity in solubilized enzyme preparations from rat liver microsomes
HMG-CoA reductase activity was measured on solubilized enzyme preparations from liver microsomes of rats which had been induced by conversion into the day/night rhythm using cholestyramine (®Cuemid). (S,R)^14 C-HMG-CoA was used as a substrate, and the concentration of NADPH was maintained during the incubation by a regenerating system. The separation of ^14 C-mevalonate from substrate and other products (for example ^14 C-HMG) was carried out by column elution, the elution profile of each individual sample being determined. The regular addition of ^3 H-mevalonate was avoided as the determination gives the data relative to the inhibitory action. The enzyme-free control, the enzyme-containing normal mixture (=100%) and those containing preparation additives were in each case treated together in one series of experiments. The sodium salts of the dihydroxycarboxylic acids of the formula II were always employed as the preparation in this test. Each individual value was formed as the mean value of 3 parallel samples. The significance of the mean value differences between preparation-free and preparation-containing samples was evaluated by the t-test.

[1] = system: microsomal lipid peroxidation; experiment: Inhibition of microsomal lipid peroxidation (in vitro); format: biochemical; conditions: for IC50: microsomes, read-out: IC50 (50% inhibition of lipid peroxidation)
Description: 5) Inhibition of microsomal lipid peroxidation (in vitro)
The inhibition of lipid peroxidation was measured under the experimental conditions described by H. Wafers and H. Sies, Eur. J. Biochem. 174, 353-357 (1988). The microsomes were obtained according to the literature cited therein. IC50 denotes the concentration of the test compound in moles per liter which causes a 50% inhibition of lipid peroxidation.

serum lipoproteins = experiment: Action on serum lipoproteins and other metabolic parameters of male rats in the subchronic test; format: in vivo; conditions: rat
Description: 3) Action on serum lipoproteins and other metabolic parameters of male rats in the subchronic test
Groups of male rats of the strain HOE: WISKf (SPF 71) having a starting weight of above 180 g received the test preparations daily in the morning (sodium salts of the dihydroxycarboxylic acids of the formula II) in polyethylene glycol 400 by stomach tube; the respective control group received only the vehicle. The last (7th) administration was carried out 24 hours before taking blood and sacrificing. There was free access to food and water during the experiment. 24 hours before taking blood, which wall carried out retroorbitally under slight ether anesthesia before and after the treatment period (i.e. on the 1st and 8th day), the food was withdrawn. Total cholesterol was determined in the serum of each individual animal [CHODPAP high performance method of Boehringer Mannheim], and, as a measure of the triglycerides, total glycerol was also determined analytically from the serum pool of all the animals of one group [GPO-PAP high performance method, Boehringer Mannheim].
Immediately after taking blood, the animals were sacrificed by dislocation of the spine, and the relative liver weight, the change in body weight and the food consumption were determined.
For the analysis of the serum lipoproteins, the serum of all the rats of one group was pooled. The serum lipoproteins were separated using the preparative ultracentrifuge.
The following conditions were used for the separation of the fractions VLDL, LDL and HDL:
The determination of the protein was carried out by the method of Lowry et al. [LOWRY O. H., ROSEBOROUGH, N.J., PARR, A. L. and RANDELL, R. J.: J. Biol. Chem. 193, 265 (1951)].

[2] = 10 mg then 20 mg/kg per day, discharge phase 3
[3] = 10 mg then 20 mg/kg per day, discharge phase 6
[4] = 10 mg then 20 mg/kg per day, discharge phase 11
[5] = 10 mg then 20 mg/kg per day, discharge phase 22
[6] = 10 mg/kg per day (up to 10th day), administration 3
[7] = 10 mg/kg per day (up to 10th day), administration 10
[8] = 20 mg/kg per day (from 11th day), administration 14
[9] = 20 mg/kg per day (from 11th day), administration 17
[10] = 20 mg/kg per day (from 11th day), administration 20
[11] = HepG2, sodium salts, test compounds corrected by deviation of mevinolin sodium from its mean value, read-out: IC50 (concentration necessary for a 50% inhibition)
[12] = 100 mg/kg daily by stomach tube, 7 administrations

IC50 (HMG-CoA reductase): 4 nM
IC50 (HEP G2 cells; [11]): 3.8 nM
SMILES: Cc1cc(-c2cc(Sc3ccc(F)cc3)cc(C(C)C)c2OC[C@@H](O)C[C@@H](O)CC(=O)O)ccc1F [Example 3]
Relative potency in % (HEP G2 cells; mevinolin sodium = 100): 1316%

IC50 [1]: 4400 nM
SMILES: CC(C)c1cc(S)cc(-c2ccc(F)cc2)c1O [Process Example 4, 2-(P-Fluorophenyl)-4-mercapto-6-isopropylphenol]
Inhibition at 10^-5 mol/l [1]: 90%

IC50 [1]: 1600 nM
SMILES: CC(C)c1c(O)c(C(C)C)c(C(C)C)c(O)c1-c1ccc(F)cc1 [Process Example 22, 2-(p-Fluorophenyl)-3,5,6-triisopropyl-1,4-hydroquinone]
Inhibition at 10^-5 mol/l [1]: 99%

Food consumption, % changes in the mean value relative to control (serum lipoproteins; [12]): +1%
Liver weight, % changes in the mean value relative to control (serum lipoproteins; [12]): +15%
SMILES: CCOC(=O)C(C)(C)Oc1ccc(Cl)cc1 [clofibrate, reference compound]
Body weight, % changes in the mean value relative to starting (serum lipoproteins; [12]): +8%
Glycerol VLDL, % change compared to control (serum lipoproteins; [12]): +4%
Protein LDL, % change compared to control (serum lipoproteins; [12]): -9%
Protein VLDL, % change compared to control (serum lipoproteins; [12]): -16%
Total cholesterol HDL, % change compared to control (serum lipoproteins; [12]): -29%
Total cholesterol LDL, % change compared to control (serum lipoproteins; [12]): -19%
Total cholesterol VLDL, % change compared to control (serum lipoproteins; [12]): -40%
Cholesterol HDL/LDL (serum lipoproteins; 100 mg/kg daily, control standardization to 1.00): 0.88

IC50 (HEP G2 cells; [11]): 50 nM
SMILES: CC[C@H](C)C(=O)O[C@H]1C[C@@H](C)C=C2C=C[C@H](C)[C@H](CC[C@@H](O)C[C@@H](O)CC(=O)O)[C@H]21 [mevinolin sodium salt, reference compound]
IC70 (HEP G2 cells; HepG2, sodium salts, test compounds corrected by deviation of mevinolin sodium from its mean value, read-out: IC70 (concentration necessary for a 70% inhibition)): 150 nM
IC70 (concentration necessary for a 70% inhibition) (HEP G2 cells; sodium salts, test compounds corrected by deviation of mevinolin sodium from its mean value): 150 nM

Further lines, the molecule ahead of its results:

SMILES: CC(C)c1cc(-c2ccc(F)cc2)c(OC[C@@H](O)C[C@@H](O)CC(=O)[O-])c(C(C)C)c1.[Na+] [Compound C, 3(R),5(S)-dihydroxy-6[-2-(4-fluorophenyl)-4,6-diisopropylphenoxy]hexanoicacid sodium salt]
IC50 (HEP G2 cells; HepG2, read-out: IC50 (concentration necessary for a 50% inhibition)): 27 nM
IC70 (HEP G2 cells; HepG2, read-out: IC70 (concentration necessary for a 70% inhibition)): 70 nM
Relative potency in % (HEP G2 cells; mevinolin sodium = 100): 185%
Relative potency in % (value in parentheses) (HEP G2 cells; mevinolin sodium = 100, in parentheses, corresponds to IC70): 214%
Serum total cholesterol, % change compared to control group (serum total cholesterol; [2]): -13%
Serum total cholesterol, % change compared to control group (serum total cholesterol; [3]): -23%
Serum total cholesterol, % change compared to control group (serum total cholesterol; [4]): -16%
Serum total cholesterol, % change compared to control group (serum total cholesterol; [5]): +18%
Serum total cholesterol, % change compared to control group (serum total cholesterol; [6]): +7%
Serum total cholesterol, % change compared to control group (serum total cholesterol; [7]): -32%
Serum total cholesterol, % change compared to control group (serum total cholesterol; [8]): -31%
Serum total cholesterol, % change compared to control group (serum total cholesterol; [9]): -37%
Serum total cholesterol, % change compared to control group (serum total cholesterol; [10]): -36%

SMILES: CC[C@H](C)C(=O)O[C@H]1C[C@@H](C)C=C2C=C[C@H](C)[C@H](CC[C@@H]3C[C@@H](O)CC(=O)O3)[C@H]21 [Mevinolin]
Serum total cholesterol, % change compared to control group (serum total cholesterol; [2]): +14%
Serum total cholesterol, % change compared to control group (serum total cholesterol; [3]): -1%
Serum total cholesterol, % change compared to control group (serum total cholesterol; [4]): +2%
Serum total cholesterol, % change compared to control group (serum total cholesterol; [5]): 0%
Serum total cholesterol, % change compared to control group (serum total cholesterol; [6]): -12%
Serum total cholesterol, % change compared to control group (serum total cholesterol; [7]): -30%
Serum total cholesterol, % change compared to control group (serum total cholesterol; [8]): -27%
Serum total cholesterol, % change compared to control group (serum total cholesterol; [9]): -24%
Serum total cholesterol, % change compared to control group (serum total cholesterol; [10]): -26%

SMILES: CC(C)c1cc(SC(C)(C)Sc2cc(-c3ccc(F)cc3)c(O)c(C(C)C)c2)cc(-c2ccc(F)cc2)c1O [Process Example 5, 4,4-(Isopropylidenedithio)-bis-[(2-isopropyl-6-p-fluorophenyl)phenol]]
Inhibition at 10^-5 mol/l [1]: 11%

SMILES: CC(C)c1cc(Sc2ccccc2)cc(-c2ccc(F)cc2)c1O [Process Example 7, 2-(p-Fluorophenyl)-4-(phenylthio)-6-isopropylphenol]
Inhibition at 10^-5 mol/l [1]: 92%
IC50 [1]: 4000 nM

SMILES: CC(C)Sc1cc(-c2ccc(F)cc2)c(O)c(C(C)C)c1 [Process Example 8, 2-(p-Fluorophenyl)-4-(isopropylthio)-6-isopropylphenol]
Inhibition at 10^-5 mol/l [1]: 1%

SMILES: Oc1c(-c2ccc(F)cc2)cc(Sc2ccc(F)cc2)cc1C1CC1 [Process Example 12, 2-(p-Fluorophenyl)-4-(p-fluorophenylthio)-6-cyclopropylphenol]
Inhibition at 10^-5 mol/l [1]: 99%
IC50 [1]: 1500 nM

SMILES: CC(=O)Oc1c(-c2ccc(F)cc2)c(C(C)C)c(O)c(C(C)C)c1C(C)C [Process Example 23, 2,5,6-Triisopropyl-3-(p-fluorophenyl)-4-acetoxyphenol]
Inhibition at 10^-5 mol/l [1]: 98%
IC50 [1]: 2800 nM
